From patent publication US20240317828A1, “T CELL ACTIVATING IMMUNOTHERAPEUTIC FOR TREATMENT OF MUCIN 1 PROTEIN EXPRESSING HUMAN CANCERS” (PDS BIOTECHNOLOGY CORPORATION, priority 2022, published 2024)
Where no end group is shown, it is not given here.

Tests used:
[1] = tested on: MUC1 antigen-specific T cells; assay: ELISPOT of MUC1 antigen-specific T cells in spleens of vaccinated HLA-A2 transgenic mice; format: in vivo, HLA-A2 expressing transgenic mice (AAD mice); conditions: for antigen delivery to dendritic cells and immune cell activation: FIGS. 4 and 5, anionic SSEEDE N-terminal extension, formulated with R-DOTAP nanoparticles and micellar mixture of six lipidated peptides; for antigen strength (immune response): lipidated peptide in the micellar peptide antigen component of the R-DOTAP vaccine
Method: As illustrated in FIG. 4 HLA-A2 specific CD8 T cell responses to formulations including peptide antigen SSEEDE-C1A (SEQ ID NO:18) and SSEEDE-C2A (SEQ ID NO:19) formulated with R-DOTAP nanoparticles and a micellar mixture with six lipidated peptide agonist antigens, pC3A: (SEQ ID NO:15), pV1A: (SEQ ID NO:2), pV2A: (SEQ ID NO:3), pC5A: (SEQ ID NO:4), pC6A: (SEQ ID NO:5), pP93L: (SEQ ID NO: 16) were evaluated. […] The efficacy of these vaccine formulations in generating T cell responses was measured by dosing HLA-A2 expressing transgenic mice (AAD mice) with two 0.1 ml injections of the vaccine delivered subcutaneously on day 0 and day 7. Negative control groups mice were vaccinated with MUC1 peptides formulated in sucrose buffer. Immune responses specific to vaccine formulation were measured in an ELISPOT assay by enumerating MUC1 antigen-specific T cells, in triplicate wells, in the spleens obtained from vaccinated mice. Each bar in the graph represents the mean SFU per 250,000 splenocytes for a group of vaccinated mice. Error bars represent mean±SEM for five mice in each group. For identifying MUC1-specific T cells, splenocytes were stimulated with peptide sequences C1A (SEQ ID NO:9: YLAIVYLIAL), C2A (SEQ ID NO:10), V1A (SEQ ID NO:13), V2A (SEQ ID NO:14:) C3A (SEQ ID NO:12) and p93L (SEQ ID NO:11)
As shown in FIG. 5 HLA-A2 specific CD8 T cell responses to formulations including peptide antigen SSEEDE-C1A (SEQ ID NO:9) and SSEEDE-C2A ([…]) formulated with R-DOTAP nanoparticles and a micellar mixture with six lipidated peptide agonist antigens, pC3A: (SEQ ID NO:15), pV1A: (SEQ ID NO:2), pV2A: (SEQ ID NO:3), pC5A: (SEQ ID NO:4), pC6A: (SEQ ID NO:5), pP93L: (SEQ ID NO:16) were assessed. […] The efficacy of these vaccine formulations in generating T cell responses was measured by dosing HLA-A2 expressing transgenic mice (AAD mice) with two 0.1 ml injections of the vaccine delivered subcutaneously on day 0 and day 7. Negative control groups mice were vaccinated with MUC1 peptides formulated in sucrose buffer. Immune responses specific to vaccine formulation were measured in an ELISPOT assay by enumerating MUC1 antigen-specific T cells, in triplicate wells, in the spleens obtained from vaccinated mice. Each bar in the graph represents the mean SFU per 250,000 splenocytes for a group of vaccinated mice. Error bars represent mean±SEM for five mice in each group. For identifying MUC1-specific T cells, splenocytes were stimulated with peptide sequences C1A (SEQ ID NO:9: YLAIVYLIAL), C2A (SEQ ID NO:10), V1A (SEQ ID NO:13), V2A (SEQ ID NO:14) C3A (SEQ ID NO:12) and p93L (SEQ ID NO:11).
Control peptide antigen formulations were prepared with 0.5 ml of Montanide plus CpG, or “NCI adjuvant” formulation consisting of 50 μg/ml GM-CSF, 20 μg/ml IL-12, 0.8 mg/ml HBV core (128-140) peptide in incomplete Freund's adjuvant. The efficacy of these vaccine formulations in generating T cell responses was measured by dosing HLA-A2 expressing transgenic mice (AAD mice) with two 0.1 ml injections of the vaccine delivered subcutaneously on day 0 and day 7. Control group mice were vaccinated with MUC1 peptides formulated in sucrose buffer alone. Immune responses specific to vaccine formulation were measured in an ELISPOT assay by enumerating MUC1 antigen-specific T cells, in triplicate wells, in the spleens obtained from vaccinated mice. Each data point in the graph represents the mean SFU per 250,000 splenocytes in vaccinated mice. Error bars represent mean±SEM for five mice in each group. For identifying MUC1-specific T cells, splenocytes were stimulated with peptide sequences C1A (SEQ ID NO:9: YLAIVYLIAL).
Control peptide antigen formulations were prepared with 0.5 ml of Montanide plus CpG, or “NCI adjuvant” formulation consisting of 50 μg/ml GM-CSF, 20 μg/ml IL-12, 0.8 mg/ml HBV core (128-140) peptide in incomplete Freund's adjuvant. […]

HLA-A2, A3, A11 and A24 = assay: MHC-binding specificity of MUC1 peptide antigens (HLA binding / HLA affinity); design: species or system human; conditions: agonist sequence; HLA allele the peptide binds; listed as VIA
Text: Within the human mucin 1 oncoprotein multiple high affinity MHC-binding peptide antigens specific for HLA-A2, A3, A11 and A24 have been identified (Table 1). MHC-binding peptide antigens specific for HLA-A2 have been identified: YLAIVYLIAL (SEQ ID NO:9, C1A), YLIALAVCQV (SEQ ID NO:10, C2A), YLAPPAHGV (SEQ ID NO:13, VIA) and YLDTRPAPV (SEQ ID NO:14, V2A).

[2] = Aqueous solubility of peptide antigens; conditions: unmodified hydrophobic agonist peptides
[3] = FIG. 8, long peptide mixed with R-DOTAP

SSEEDE-YLAIVYLIAL (SSEEDEYLAIVYLIAL) [SSEEDE-C1A, C1A with cleavable anionic N-terminal extension SSEEDE]
antigen delivery to dendritic cells and immune cell activation [1]: effective delivery

KSS-YLDTRPAPV (not fully specified; lipidated; SITE 1 Epsilon-palmitoyl modified residue) [pV2A, lipidated MUC1 agonist peptide]
antigen strength (immune response) ([1]; FIGS. 3 and 7): strong antigens

KSS-YLAPPAHGV (not fully specified; lipidated; SITE 1 Epsilon-palmitoyl modified residue) [pV1A, lipidated MUC1 agonist peptide]
antigen strength (immune response) ([1]; FIGS. 3 and 7): strong antigens

YLDTRPAPV (not fully specified) [V2A, MUC1 agonist peptide antigen]
antigen strength (immune response) ([1]; FIGS. 3 and 7): strong antigens

SSEEDE-YLIALAVCQV (SSEEDEYLIALAVCQV) [SSEEDE-C2A, C2A with cleavable anionic N-terminal extension SSEEDE]
antigen delivery to dendritic cells and immune cell activation [1]: effective delivery

YLAPPAHGV (not fully specified) [V1A, MUC1 agonist peptide antigen]
HLA Binding (HLA-A2, A3, A11 and A24): HLA-A2
antigen strength (immune response) ([1]; FIGS. 3 and 7): strong antigens

YLIALAVCQV [C2A, YLIALAVCQV]
aqueous solubility [2]: limited aqueous solubility

YLIALAVCQVRRKNYGQLDIFPARDKYHPMSEYAL- [YL35]
C2A response [1, 3]: did not generate a significant C2A response

YLAIVYLIAL [C1A]
C1A-specific T cell response (immunoactivity) ([1]; FIG. 1, peptide inserted into lipid bilayer of R-DOTAP nanoparticle, two 0.1 ml s.c. injections day 0 and 7, splenocytes stimulated with C1A): effective immunoactivity
immune response ([1]; FIG. 8, short peptides encapsulated (incorporated into the R-DOTAP bilayer)): did generate a significant response
immune response ([1]; FIG. 8, short peptides mixed with R-DOTAP): did not generate a significant response
immune response (HLA-A2 specific CD8 T cell) ([1]; FIGS. 3 and 7, peptides inserted into R-DOTAP nanoparticle lipid bilayer, with micellar lipidated V1A/V2A, 3 mg R-DOTAP per ml): strong immune responses
generation of immune responses ([1]; peptide included in antigen mixtures mixed/formulated with R-DOTAP nanoparticles (not inserted in bilayer)): ordinarily inactive

YLAIVYLIALAVCQVRRKNYGQLDIFPARDKYHPMSEYAL [YL40]
antigen specific responses to antigens C1A and C2A ([1]; FIG. 6, long peptide with lipidated peptide micelles and 3 mg R-DOTAP in 1 ml): strong antigen specific responses
C1A response (activity) [1, 3]: induces a significant C1A response
C1A specific T-cell responses ([1]; FIGS. 6 and 7, long peptide delivered with R-DOTAP nanoparticles): high level detection
